In publication PMC9207888, “Hydride Transfer Mechanism of Enzymatic Sugar Nucleotide C2 Epimerization Probed with a Loose-Fit CDP-Glucose Substrate” (ACS Catalysis, 2022):

Columns and labels:
Type in all cases: binding
[1] = target: T1, TaCPa2E (Thermodesulfatator atlanticus CDP-paratose 2-epimerase; C2 epimerase) (Thermodesulfatator atlanticus, UniProt Z9RN36Q305); experiment: HPLC quantification of coenzyme released from denatured purified enzyme; conditions: resting enzyme without substrate, 60 °C, pH 7.5
T1 construct: C-terminal His-tag, pET21a, expressed in E. coli BL21(DE3); 39362 g/mol functional monomer; catalytic Tyr164; SDR superfamily
T1 sequence (Z9RN36Q305 1-340): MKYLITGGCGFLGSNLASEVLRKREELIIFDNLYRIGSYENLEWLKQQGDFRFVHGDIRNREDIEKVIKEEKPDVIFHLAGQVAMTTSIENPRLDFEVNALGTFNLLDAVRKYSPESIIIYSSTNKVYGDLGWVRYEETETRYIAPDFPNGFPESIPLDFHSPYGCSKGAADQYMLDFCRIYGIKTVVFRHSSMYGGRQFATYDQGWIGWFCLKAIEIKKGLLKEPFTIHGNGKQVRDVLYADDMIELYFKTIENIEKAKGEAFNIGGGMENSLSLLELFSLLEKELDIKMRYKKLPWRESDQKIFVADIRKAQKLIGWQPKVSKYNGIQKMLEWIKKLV
Text: HPLC quantification of coenzyme released from denatured purified enzyme on TaCPa2E (Thermodesulfatator atlanticus CDP-paratose 2-epimerase; C2 epimerase) | the NADH content of the resting enzyme in the absence of the substrate

[2] = target: T2, TaCPa2E (Thermodesulfatator atlanticus CDP-paratose 2-epimerase; C2 epimerase) (Thermodesulfatator atlanticus, UniProt Z9RN36Q305, Y164F); experiment: co-purified coenzyme in isolated variant; conditions: tightly bound
T2 construct: C-terminal His-tag, pET21a, expressed in E. coli BL21(DE3); 39362 g/mol functional monomer; catalytic Tyr164; SDR superfamily

[3] = target: T1, TaCPa2E (Thermodesulfatator atlanticus CDP-paratose 2-epimerase; C2 epimerase); experiment: HPLC of coenzyme released from denatured purified enzyme; conditions: tightly bound, co-purified; extraction not quantitative

Row | portion of enzyme-NADH in resting enzyme [1] | SMILES | co-purified coenzyme in isolated variant [2] | HPLC of coenzyme released from denatured purified enzyme [3]
1 | 4.15 ± 1.0% | NC(=O)C1=CN([C@@H]2O[C@H](COP(=O)(O)OP(=O)(O)OC[C@H]3O[C@@H](n4cnc5c(N)ncnc54)[C@H](O)[C@@H]3O)[C@@H](O)[C@H]2O)C=CC1 [NADH] | – | –
2 | – | NC(=O)c1ccc[n+]([C@@H]2O[C@H](COP(=O)(O)OP(=O)(O)OC[C@H]3O[C@@H](n4cnc5c(N)ncnc54)[C@H](O)[C@@H]3O)[C@@H](O)[C@H]2O)c1 [NAD^+] | The purified variant contained tightly bound NAD^+ | enzyme-bound NAD^+ could not be extracted from TaCPa2E reliably
